Laboratory results reported in patent US20130178536A1, “SUBSTITUTED CIS- AND TRANS-STILBENES AS THERAPEUTIC AGENTS” (STC.UNM, priority 2006, published 2013).

Legend:
Assay type in all cases: in vivo, mouse
Aβ plaques [1] = experiment: MRI-detected plaques in brains of AD transgenic mice with anti-APP SPIONs; conditions: for Decline in number of plaques per brain: 100 ppm in diet, 1 year, MRI
Excerpt: (§1) B6C3 transgenics (Jackson Laboratory) were used. These double transgenic mice express a chimeric mouse/human amyloid precursor protein (Mo/HuAPP695swe) and a mutant human presenilin 1 (PS1-dE9) both directed to CNS neurons. Both mutations are associated with early-onset Alzheimer's disease. The “humanized” Mo/HuAPP695swe transgene allows the mice to secrete a human Ab peptide. The included Swedish mutations (K595N/M596L) elevate the amount of Ab produced from the transgene by favoring processing through the beta-secretase pathway. Transgenic mice develop beta-amyloid deposits in brain by six to seven months of age. These animals also display a slight alteration in their tail phenotype that is believed to be due to the mixed genetic background of the strain and is not related to transgene expression. These mice are useful in studies of neurological disorders of the brain, specifically Alzheimer's disease, amyloid plaque formation.
(§2) Female B6C3 transgenics were used. Animals were housed 5/cage and fed ad libitum. Groups included controls, RV groups, compound 1 groups and compound 2 groups. Each group was comprised of 15 animals. Diets contained standard dyes to provide different colors to each diet to avoid confusion during the 12 months feeding.
Transgenic mice carrying mutated APP and presenilin-1 were fed this diet. It was observed early on that compound 2a (4cc) was toxic. Therefore, it was discontinued in the study. […] Twenty four hrs before sacrifice, SPIONs were injected via the tail vein. […]
Pilot MRI studies of this line of transgenic mice were carried out at three magnetic field strengths: at 4.7 Tesla, at the UNM BRaIN Imaging Center, and at 9.4 and 16.4 Tesla at the Center for Magnetic Resonance Research at the University of Minnesota. […] One hundred ninety two MRI slices were analyzed by counting plaques in each slice, and by computing the statistical significance of the intensity in the hypointense plaque core versus the noise level in the surrounding tissue. […]

Aβ plaques [2] = experiment: Areal density of Aβ plaques in brains of AD transgenic mice (Thioflavin-S histology); conditions: for Plaque areal density: 100 ppm in diet, 1 year, mean±S.E.M., p<0.001, untreated 79.8±2.4; for Decrease in plaque areal density: vs untreated transgenic mice
Excerpt: as §1, §2
(§3) Transgenic mice carrying mutated APP and presenilin-1 were fed this diet. It was observed early on that compound 2a (4cc) was toxic. Therefore, it was discontinued in the study. […] Twenty four hrs before sacrifice, SPIONs were injected via the tail vein. […] The MRI conspicuity of the plaques increased from a Z-score (signal to noise ratio) of 4.6±0.6 to 8.0±0.1 when the plaque Z-score was compared in control AD mice with AD mice treated with nanoparticles. The number of MRI-visible plaques per brain increased from 355±39 in the control AD mice, to 668±52 in the SPION treated mice.
Paraffin embedded brain sections were rehydrated by progressively immersing them in Hemo-De, 95% EtOH, 70% EtOH and finally 0.1M PBS. […] Images were taken with a Zeiss Axioskop 2 equipped with a Zeiss AxioCam and a Prior Lumen 200 fluorescence lamp (Cancer Center Fluorescence Microscopy Facility, University of New Mexico, Albuquerque, N. Mex., USA, http://hsc.unm.edu/crtc/microscopy/). […]
(§4) Plaque number and area were measured on the CCD images of the IHC brain sections with the aid of ImageJ software (NIH) by thresholding and conversion of the images to binary images. The radial sizes of the plaques were measured using ImageJ on Thioflavin-S stained fluorescence micrographs of brain sections. The radial distributions of activated microglia were measured on spatially calibrated fluorescence micrographs of Iba-1 stained brain sections using the center of the plaque as the local point of reference and the center of the DAPI-stained microglial nucleus as the endpoint. […]

activated microglia = experiment: Activated microglia density and radial distribution in brains of AD transgenic mice (Iba-1 staining); conditions: for Areal density of activated microglia: 100 ppm in diet, 1 year, mean±S.E.M., p<0.001, untreated 86.1±2.8; for Decrease in areal density of activated microglia: vs untreated transgenic mice
Excerpt: as §1, §2, §3
Paraffin embedded brain sections were rehydrated by progressively immersing them in Hemo-De, 95% EtOH, 70% EtOH and finally 0.1M PBS. Antigens were retrieved by placing the slides in 6.0 pH 0.01 M sodium citrate buffer with heating to 90° C. for 20 minutes. After cooling to r.t., the slides were stained with Thioflavin-S as above. After rehydrating with 0.1M PBS for 5 minutes, the slides were blocked with 0.1M PBS containing 6% normal donkey serum for 45 minutes and then incubated overnight with rabbit anti-Iba-1, diluted 1:400, at 4° C. in a humidity chamber. The next day the slides were washed three times with 0.1M PBS. The secondary antibody, rhodamine-conjugated donkey anti-rabbit IgG, was diluted with 0.5% BSA in 0.1M PBS to 1:200 under light-restricted conditions. 100 μl of this secondary antibody solution was applied to each brain slice for 2 h in a light-tight container at r.t. The slides were then rinsed three times with 0.1M PBS and twice with dd water. Vectashield with DAPI was applied and the slides were cover-slipped and sealed for imaging. Images were taken with a Zeiss Axioskop 2 equipped with a Zeiss AxioCam and a Prior Lumen 200 fluorescence lamp (Cancer Center Fluorescence Microscopy Facility, University of New Mexico, Albuquerque, N. Mex., USA, http://hsc.unm.edu/crtc/microscopy/). Images were processed using Slidebook (Denver, Colo.). Confocal images were taken and processed using Zen (Carl Zeiss MicroImaging GmbH, Germany).
as §4

COc1ccc(/C=C/c2ccccc2F)cc1 [1a (LD-55)] was tested, and the “Decline in number of plaques per brain” value (Aβ plaques [1]) was 3-6 fold, the “Total number of MRI-determined plaques” value (Aβ plaques [1]; fed over entire life span, anti-APP SPIONs for 24 hours, SPION control n=668) was 209 and the Plaque areal density (Aβ plaques [2]) was 55.4±4.8 plaques/mm^2. For the same compound, the “Decrease in plaque areal density” value (Aβ plaques [2]) was 31%, the Proximal halo of microglia around plaques (activated microglia) was 24 µm and the “Areal density of activated microglia” value (activated microglia) was 44.2±3.2 microglia/mm^2. The “Decrease in areal density of activated microglia” value (activated microglia) was 49%.

For Oc1ccc(/C=C/c2cc(O)cc(O)c2)cc1 [Resveratrol, reference compound], the “Decline in number of plaques per brain” value (Aβ plaques [1]) was 3-6 fold, the Plaque areal density (Aβ plaques [2]) was 51.8±2.4 plaques/mm^2 and the “Decrease in plaque areal density” value (Aβ plaques [2]) was 35%. The Proximal halo of microglia around plaques (activated microglia) was 17 µm, the “Areal density of activated microglia” value (activated microglia) was 34.7±1.8 microglia/mm^2 and the “Decrease in areal density of activated microglia” value (activated microglia) was 60%.
